Assays:
[1] = target: T1, human 5-HT7 receptor (Homo sapiens, UniProt P34969); experiment: 5-HT7 receptor binding test; settings: human 5-HT7 receptor expressing CHO cell membrane, [3H] 5-HT
T1 construct: expressed in transfected cells; host or cells: CHO cells (membrane preparation)
Experimental: Test Method (2) 5-HT7 Receptor Binding Test (i) Preparation of Membrane Sample
Cultured human 5-HT7 receptor expressing CHO cells were washed with PBS(−). The cells were peeled off with a scraper in the presence of PBS(−), and the cells were recovered by centrifugation (1,000 rpm, 10 minutes, 4° C.). In the presence of 5 mM Tris-HCl (pH 7.4) buffer, homogenized using a homogenizer (registered trademark: Polytron (PTA 10-TS)), and centrifugation-treated (40,000×g, 10 minutes, 4° C.). In the presence of 50 mM Tris-HCl (pH 7.4) buffer, suspended using Glass-Teflon (registered trademark) homogenizer. By carrying out centrifugation treatment (40,000×g, 10 minutes, 4° C.), suspended in 50 mM Tris-HCl (pH 7.4) and stored at −80° C.
(§1) (ii) Receptor Binding Test
A total volume of 500 μl containing 50 mM Tris-HCl, a 4 mM CaCl2 (pH 7.4) buffer, a human 5-HT7 receptor expressing CHO cell membrane preparation and a radio-ligand [^3H] 5-HT (3.40 TBq/mmol) was incubated at 25° C. for 1 hour. The compound was dissolved in 100% DMSO and diluted to respective concentrations. Binding quantity in the presence of 10 μM metergoline was regarded as the nonspecific binding, and a result of subtracting the nonspecific binding quantity from the total binding quantity was regarded as the specific binding quantity. After adding 4 ml of 50 mM Tris-HCl buffer (pH 7.4) and filtering under a reduced pressure using a GF/B glass filter, the filter was washed (4 ml×3) with the same buffer. By soaking the glass filter in 5 ml of a liquid scintillator (trade name: Aquasol-2), the radioactivity quantity was measured using a liquid scintillation counter.

[2] = target: T2, human 5-HT2B receptor (Homo sapiens, UniProt P41595); experiment: 5-HT2B receptor binding test; settings: human 5-HT2B receptor expressing HEK293-EBNA cell membrane, [3H] Mesulergine
T2 construct: expressed in transfected cells; host or cells: HEK293-EBNA cells (membrane preparation)
Experimental: Test Method (1) 5-HT2B Receptor Binding Test
(i) Preparation of Membrane Sample
Cultured human 5-HT2B receptor expressing HEK293-EBNA cells were washed with a phosphate buffer (PBS)(−). The cells were peeled off with a scraper in the presence of PBS(−), and the cells were recovered by centrifugation (1,000 rpm, 10 minutes, 4° C.). In the presence of 5 mM tris-hydrochloric acid (Tris-HCl) (pH 7.4) buffer, homogenized using a homogenizer (registered trademark: Polytron (PTA 10-TS)), and centrifugation-treated (40,000×g, 10 minutes, 4° C.). In the presence of 50 mM Tris-HCl (pH 7.4) buffer, suspended using Glass-Teflon (registered trademark) homogenizer. By carrying out centrifugation treatment (40,000×g, 10 minutes, 4° C.), suspended in 50 mM Tris-HCl (pH 7.4) and stored at −80° C.
as §1
A total volume of 500 μl containing 50 mM Tris-HCl, a 4 mM CaCl2 (pH 7.4) buffer, a human 5-HT2B receptor expressing HEK293-EBNA cell membrane preparation and a radio-ligand [^3H] Mesulergine (3.1 TBq/mmol) was incubated at 25° C. for 1 hour. The compound was dissolved in 100% dimethyl sulfoxide (DMSO) and diluted to respective concentrations. Binding quantity in the presence of 1 μM ritanserin was regarded as the nonspecific binding, and a result of subtracting the nonspecific binding quantity from the total binding quantity was regarded as the specific binding quantity. After adding 4 ml of 50 mM Tris-HCl buffer (pH 7.4) and filtering under a reduced pressure using a GF/B glass filter, the filter was washed (4 ml×3) with the same buffer. By soaking the glass filter in 5 ml of a liquid scintillator (trade name: Aquasol-2), the radioactivity quantity was measured using a liquid scintillation counter. […] Ex represents example compound number which is described later.

[3] = test system: male Wistar rats; experiment: Defecation suppressing effect at the time of restraint stress loading (rat restraint stress defecation model); format: in vivo; settings: for suppressing action on defecation / defecation-suppressing action: rat restraint stress, faces excreted during 1 hour after stress loading; for suppressing action on defecation: starting from a dose of 1 mg/kg (p.o.); for number of faces excreted, difference in comparison with the non-administration group: rat restraint stress, 1, 3 or 10 mg/kg administration group, N=10; for defecation-suppressing action: even at a dose of 10 mg/kg p.o.
Experimental: Test method (4) Defecation Suppressing Effect at the Time of Restraint Stress Loading
The IBS-treating effect of the compound (I) of the present invention was evaluated using a test method in which the amount of excreted faces is measured by loading a restraint stress on rats (see “The Journal of Pharmacology Experimental Therapeutics”, (USA), 1992, vol. 261, p. 297-303).
The agent to be tested was administered to male Wistar rats (body weight 250 to 320 g, 10 animals for each group), and a restraint stress was loaded 30 minutes thereafter. A restraint cage (trade name: KN-468, 265 mm in width×95 mm in length×200 mm in height, Natsume Seisakusho, Tokyo) was used for the restraint stress loading, and the number of faces excreted during 1 hour after the stress loading was counted.

[4] = test system: 5-HT2B receptor; settings: versus 5-HT1A, 5-HT1B, 5-HT2A, 5-HT2C, 5-HT3, 5-HT6, 5-HT7, α1, M1, D2 and the like; cited from earlier work

T2 sequence (P41595 whole entry): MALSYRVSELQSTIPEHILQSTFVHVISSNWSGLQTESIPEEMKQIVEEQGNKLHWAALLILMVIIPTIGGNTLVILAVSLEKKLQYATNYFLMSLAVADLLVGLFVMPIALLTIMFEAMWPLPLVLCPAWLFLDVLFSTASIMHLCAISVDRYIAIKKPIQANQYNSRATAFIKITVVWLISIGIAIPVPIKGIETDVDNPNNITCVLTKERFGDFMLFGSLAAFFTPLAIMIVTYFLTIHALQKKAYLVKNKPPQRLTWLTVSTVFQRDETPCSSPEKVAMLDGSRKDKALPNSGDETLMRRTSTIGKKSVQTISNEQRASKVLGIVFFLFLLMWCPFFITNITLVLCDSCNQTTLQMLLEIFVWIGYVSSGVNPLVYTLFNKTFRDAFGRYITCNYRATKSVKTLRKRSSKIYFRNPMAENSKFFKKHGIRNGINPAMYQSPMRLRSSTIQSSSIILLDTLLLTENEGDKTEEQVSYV
T1 sequence (P34969 whole entry): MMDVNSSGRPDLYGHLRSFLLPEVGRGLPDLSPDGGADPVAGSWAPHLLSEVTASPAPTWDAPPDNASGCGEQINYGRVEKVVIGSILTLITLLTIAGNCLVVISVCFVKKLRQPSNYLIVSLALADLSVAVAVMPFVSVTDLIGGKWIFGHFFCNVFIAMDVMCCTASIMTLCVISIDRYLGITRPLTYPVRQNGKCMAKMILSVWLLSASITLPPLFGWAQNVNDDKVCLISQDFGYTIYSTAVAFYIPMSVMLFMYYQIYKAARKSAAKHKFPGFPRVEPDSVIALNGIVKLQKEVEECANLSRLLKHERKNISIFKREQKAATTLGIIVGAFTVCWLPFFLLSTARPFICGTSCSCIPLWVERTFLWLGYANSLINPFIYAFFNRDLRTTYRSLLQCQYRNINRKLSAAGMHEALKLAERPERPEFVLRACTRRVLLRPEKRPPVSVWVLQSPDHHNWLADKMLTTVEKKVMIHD

| Ki [1] [nM] | Ki [2] [nM] | SMILES | suppressing action on defecation [3] | number of faces excreted, difference in comparison with the non-administration group [3] | defecation-suppressing action [3] | 5-HT2B receptor-selective by a factor [4] [times] |
| --- | --- | --- | --- | --- | --- | --- |
| 11 | 0.68 | Cc1c(C(=O)NCCN(C)C)cc(-c2ccsc2)n1CCc1ccc(F)cc1 [Example 187] |  |  |  |  |
| 4.1 | 7.1 | Cc1c(C(=O)NC[C@H]2CCCN2C)cc(C(C)(C)C)n1CCc1ccc(F)cc1 [Example 163] |  |  |  |  |
| 1.5 | 3.7 | Cc1c(C(=O)N=C(N)N)c(C)n(CCc2ccc(F)cc2)c1C(C)(C)C [Example 142] |  |  |  |  |
| 4.3 | 9.2 | Cc1c(C(=O)N[C@H]2CCN(C)C2)c(C)n(CCc2ccc(F)cc2)c1C(C)(C)C [Example 218] |  |  |  |  |
| 6.5 | 12 | Cc1c(C(=O)N[C@H]2CCN(C)C2)cc(C(C)(C)C)n1CCc1ccc(F)cc1 [Example 153] | significant suppressing action |  |  |  |
| 8.2 | 2.3 | Cc1c(C(=O)N[C@@H]2CCN(C)C2)c(C)n(CCc2ccc(F)cc2)c1C(C)(C)C [Example 217] |  |  |  |  |
| 1.3 | 0.48 | Cc1c(C(=O)N=C(N)N)cc(C2CCCC2)n1CCc1ccc(F)cc1 [Example 52] |  |  |  |  |
|  |  | CC(C)c1cc(-c2ccc(F)c3ccccc23)nc(N)n1 [RS-127445, 2-amino-4-(4-fluoronaphth-1-yl)-6-isopropylpyrimidine] |  | Significant difference was not found | did not show defecation-suppressing action | ≥ 1000 |
| 28 | 9.6 | Cc1c(C(=O)N=C(N)N)cc(-c2ccccc2)n1Cc1ccco1 [Example 98] |  |  |  |  |
| 14 | 2.1 | Cc1c(C(=O)N[C@@H]2CCN(C)C2)cc(C(C)(C)C)n1CCc1ccc(F)cc1 [Example 154] | significant suppressing action |  |  |  |
| 5.3 | 8.4 | Cc1c(C(=O)NC[C@@H]2CCCN2C)cc(C(C)(C)C)n1CCc1ccc(F)cc1 [Example 161] | significant suppressing action |  |  |  |
| 1.1 | 7.7 | Cc1c(C(=O)NCCN(C)C)cc(C(C)(C)C)n1CCc1ccc(F)cc1 [Example 2, 5-tert-butyl-N-[2-(dimethylamino)ethyl]-1-[2-(4-fluorophenyl)ethyl]-2-methyl-1H-pyrrole-3-carboxamide] |  |  |  |  |
| 3.1 | 7.5 | Cc1c(C(=O)NCCN(C)C)cc(C(C)(C)C)n1OCc1ccc(F)cc1 [Example 211] |  |  |  |  |
|  |  | CC1CCN(CC[C@H]2CCCN2S(=O)(=O)c2cccc(O)c2)CC1 [SB-269970, (R)-3-(2-(2-(4-methylpiperidin-1-yl)ethyl)pyrrolidine-1-sulfonyl)phenol] |  | Significant difference was not found | did not show the defecation-suppressing action |  |
| 1.8 | 7.2 | Cc1c(C(=O)NCCN(C)C)cc(Cc2ccc(F)cc2)n1CCc1ccc(F)cc1 [Example 196] |  |  |  |  |

— patent US8222274B2, “Pyrrole derivative or salt thereof” (Astellas Pharma Inc., priority 2006, dated 2012)
